ChEMBL document CHEMBL4602687, “Dual Binding to Orthosteric and Allosteric Sites Enhances the Anticancer Activity of a TRAP1-Targeting Drug” (J Med Chem, 2020)
Residue numbers refer to the chain shown, from its start. Active and inactive are the calls of the source. No cut-off for these calls is given here.

Tests used:
Homo sapiens = organism: Homo sapiens; test: Inhibition of recombinant full-length human TRAP1 W383/W4F mutant expressed in Escherichia coli BL21 (DE3) assessed as intrinsic fluorescence quenching of tryptophan residues at 10 uM measured after 1 hr by fluorescence spectrophotometric method
Mus musculus [1] = test: In vivo inhibition of TRAP1 in nude mouse xenografted with human NCI-H460 cells assessed as increase in CHOP expression at 5 mg/kg, ip administered daily by Western blot analysis; type: functional, organism-based
[2] = biological target: T1, Heat shock protein 75 kDa, mitochondrial (Homo sapiens) (UniProt Q12931); test: Inhibition of recombinant wild-type human TRAP1 expressed in Escherichia coli BL21 (DE3) assessed as intrinsic fluorescence quenching of tryptophan residues at 10 uM measured after 1 hr by fluorescence spectrophotometric method
T1 sequence (whole entry): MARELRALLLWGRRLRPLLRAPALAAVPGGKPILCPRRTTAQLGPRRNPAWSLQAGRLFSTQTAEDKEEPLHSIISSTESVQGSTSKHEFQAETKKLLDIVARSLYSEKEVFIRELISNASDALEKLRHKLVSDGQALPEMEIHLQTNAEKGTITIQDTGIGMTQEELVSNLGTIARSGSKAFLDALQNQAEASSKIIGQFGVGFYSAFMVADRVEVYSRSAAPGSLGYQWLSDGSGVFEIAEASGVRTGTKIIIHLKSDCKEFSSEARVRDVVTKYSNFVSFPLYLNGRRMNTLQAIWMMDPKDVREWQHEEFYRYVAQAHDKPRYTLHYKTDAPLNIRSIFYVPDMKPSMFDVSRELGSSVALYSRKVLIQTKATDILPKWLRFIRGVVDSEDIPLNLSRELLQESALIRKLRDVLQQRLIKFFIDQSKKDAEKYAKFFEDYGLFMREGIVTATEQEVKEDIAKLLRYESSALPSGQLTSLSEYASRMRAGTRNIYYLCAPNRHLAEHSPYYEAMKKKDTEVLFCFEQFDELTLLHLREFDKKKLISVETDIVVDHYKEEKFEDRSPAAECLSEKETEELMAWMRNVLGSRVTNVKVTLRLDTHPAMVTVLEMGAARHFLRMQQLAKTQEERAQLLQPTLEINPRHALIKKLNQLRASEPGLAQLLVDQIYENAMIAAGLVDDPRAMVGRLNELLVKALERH

[3] = biological target: T1, Heat shock protein 75 kDa, mitochondrial (Homo sapiens); test: Binding affinity to recombinant wild-type human TRAP1 ATP site expressed in Escherichia coli BL21 (DE3) assessed as induction of conformational change by measuring closed state population of TRAP1 at 10 uM preincubated for 30 mins followed by ATP addition and measured after 30 mins by TEM analysis (reference value: 52.1 +/- 0.6 %)
[4] = system: T2, Heat shock protein 75 kDa, mitochondrial (Homo sapiens), Q12931 [R114E,R402Q]; test: Stimulation of recombinant […] human TRAP1 R114E/R402Q mutant ATPase activity expressed in Escherichia coli BL21 (DE3) up to 20 uM preincubated for 0.5 hrs followed by ATP addition and measured after 3 hrs by PiColorLock Gold reagent based colorimetric assay
T2 sequence (whole entry): T1 sequence (whole entry) with R114E, R402Q

NCI-H460 [5] = test: Antitumor activity against human NCI-H460 cells xenografted in nude mouse assessed as reduction in tumor cell proliferation at 5 mg/kg, ip administered daily by Ki67 staining based immunohistochemistry analysis; type: functional, organism-based
Mus musculus [6] = test: In vivo inhibition of TRAP1 in nude mouse xenografted with human NCI-H460 cells assessed as increase in AMPK phosphorylation at 5 mg/kg, ip administered daily by Western blot analysis; type: functional, organism-based
PC-3 = test: Cytotoxicity against human PC3 cells assessed as reduction in cell viability up to 3 uM measured after 24 hrs by MTT assay; type: functional, cell-based
[7] = system: T3, Heat shock protein 75 kDa, mitochondrial (Homo sapiens), Q12931 [E115Q]; test: Inhibition of recombinant […] human TRAP1 E115Q mutant ATPase activity expressed in Escherichia coli BL21 (DE3) up to 20 uM preincubated for 0.5 hrs followed by ATP addition and measured after 3 hrs by PiColorLock Gold reagent based colorimetric assay
T3 sequence (whole entry): T1 sequence (whole entry) with E115Q

NCI-H460 [8] = test: Antitumor activity against human NCI-H460 cells xenografted in nude mouse assessed as induction of tumor cell death by measuring increase in cleaved caspase-3 expression at 5 mg/kg, ip administered daily by Western blot analysis; type: functional, organism-based

Nc1ncnc2c1nc(Sc1cc3c(cc1I)OCO3)n2CCCCCCCCCC[P+](c1ccccc1)(c1ccccc1)c1ccccc1
inhibition (Homo sapiens): Active
inhibition (Mus musculus [1]): Active
inhibition [2]: Active
Activity [3]: 94.2%
Activity [4]: inactive
Activity (NCI-H460 [5]): Active
inhibition (Mus musculus [6]): Active
Activity (PC-3): Active
inhibition [7]: Active
Activity (NCI-H460 [8]): Active
